How the values were obtained:
[1] = target: T1, RUMGNA_02695 (RgNanOx, oxidoreductase) (Mediterraneibacter gnavus, UniProt A7B558); assay: RUMGNA_02695 enzymatic activity assay; assay type: biochemical, R. gnavus ATCC 29149
T1 construct: the full length RgNanA and full length RUMGNA_02695 were amplified from R. gnavus ATCC 29149 gDNA; His6 (pHISTEV vector) (N); made in house; host or cells: E. coli BL21
Protocol: To assay RUMGNA_02695 activity against 2,7-anhydro-Neu5Ac, the purified recombinant protein was incubated in 100 μl reactions at 37° C. overnight with 1 mM 2,7-anhydro-Neu5Ac, 50 mM sodium phosphate buffer pH 7.0 and 500 μM NADH, NAD, FAD or no cofactor. The reactions were dried using a Concentrator Plus (Eppendorf) for 1 h. Samples were then resuspended in 50 μl of water and 50 μl of reaction buffer (1.74 mg of 1,2-Diamino-4,5-methylenedioxybenzene dihydrochloride (Carbosynth, UK), 324.6 μl MilliQ water, 88.6 μl glacial acetic acid, 58.2 μl of β-Mercaptoethanol and 79.3 μl of sodium hydrosulphite) and incubated for 2 h at 55° C. in the dark. The samples were then centrifuged for 1 min and filtered using a 0.45 μm filter into a glass HPLC vial and directly analysed by HPLC.
DMB-labelled samples were analysed by injecting 10 μl onto a Luna 5 μm C-18(2) LC column 250×4.6 mm (Phenomenex) at 1 ml/min. Mobile phases methanol/acetonitrile/water were used for separation of fluorescently labelled sialic acids. The settings of the fluorescence detector were 373 nm excitation and 448 nm emission. Samples were run alongside a Neu5Ac standard.
To determine the kinetic parameters of RUMGNA_02695 enzymatic reaction, a coupled reaction with lactate dehydrogenase and sialic acid aldolase was carried out as described above but with 15 μg of RgNanA and 10 μg RUMGNA_02695 in each reaction. For the kinetics assays, 1, 0.4, 0.2, 0.1, 0.04, 0.02 and 0.01 mM 2,7-anhydro-Neu5Ac was used and the initial rate of reaction determined for each concentration in triplicate before analysis was performed by fitting the data to a Michaelis-Menten using Graph Pad Prism (V 5.03).
Electrospray ionisation spray mass spectrometry (ESI-MS) analysis was performed using the Applied Biosystems 4000 Q-TRAP. The full 100 μl reaction was diluted with 500 ul of 50% Acetonitrile and 0.1% formic acid and samples analysed in negative ion mode using direct injection.

[2] = tested on: R. gnavus ATCC 29149 wild-type; assay: Growth on sole carbon source, wild-type strain; assay type: cell-based; conditions: 11.1 mM in YCFA, anaerobic
Protocol: R. gnavus ATCC 29149 was routinely grown in an anaerobic cabinet (Don Whitley, Shipley, UK) in BHI-YH as previously described (Crost et al., 2013). Growth on single carbon sources utilized anaerobic basal YCFA medium (Duncan et al., 2002) supplemented with 11.1 mM of specific mono- or oligosaccharides (2,7-anhydro-Neu5Ac, 3'Sialyllactose (3'SL) or glucose). The bacteria were grown to late exponential phase for RNA extraction, the culture was performed in 14 ml tubes. Growth was determined spectrophotometrically by monitoring changes in optical density at […] compared to the same medium without bacterium (ΔOD595 nm) hourly for 10 hours.
(§1) The ability of the mutants to utilise sialic acids and sialoconjugates was assessed by supplementing YCFA with 11.1 mM of 2,7-anhydro-Neu5Ac, 3'SL, glucose or Neu5Ac in triplicate 200 μl cultures in 96-well microtiter plates. The OD595 nm was measured hourly for 10 h in an infinite F50 plate reader (Tecan, UK) housed within an anaerobic cabinet connected to Magellan V7.0 software.

[3] = tested on: R. gnavus ATCC 29149 nan deletion mutants; assay: Growth on sole carbon source, nan deletion mutants; assay type: cell-based; conditions: 11.1 mM in YCFA, anaerobic
Source text: R. gnavus mutants were generated using the ClosTron methodology (Heap et al., 2010), which inserts an erythromycin resistance cassette into the gene of interest. Target sites were identified using the Pertuka method (Perutka et al., 2004). The re-targeted introns were synthesised and ligated into the pMTL007C-E2 vector by ATUM (MenloPark, USA). The plasmids were then transformed into E. coli CA434 using the heat-shock protocol, and the recombinant clones selected for chloramphenicol resistance. Recombinant E. coli cells were grown overnight in 10 ml LB, 1 ml of the overnight culture was pelleted and washed with PBS. The E. coli cell pellet was resuspended in 200 μl of an R. gnavus overnight culture and the cell suspension spotted onto a non-selective BHI-YH plate. […]
as §1

[4] = coupled reaction with excess aldolase and lactate dehydrogenase

T1 sequence (A7B558 whole entry): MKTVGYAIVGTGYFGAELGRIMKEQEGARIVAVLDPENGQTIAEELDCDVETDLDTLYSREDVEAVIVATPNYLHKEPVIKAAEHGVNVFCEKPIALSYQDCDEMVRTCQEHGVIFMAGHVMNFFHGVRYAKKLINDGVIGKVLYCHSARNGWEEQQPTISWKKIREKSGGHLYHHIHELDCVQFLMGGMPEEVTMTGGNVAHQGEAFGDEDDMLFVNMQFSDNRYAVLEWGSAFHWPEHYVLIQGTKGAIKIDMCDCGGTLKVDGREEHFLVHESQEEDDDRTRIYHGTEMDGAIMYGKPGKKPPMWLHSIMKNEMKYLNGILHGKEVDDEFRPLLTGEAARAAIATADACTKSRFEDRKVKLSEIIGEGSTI

SMILES: CC(=O)N[C@H]1C2OC(C(=O)O)(C[C@@H]1O)O[C@@H]2[C@H](O)CO (some centres unmarked) [2,7-anhydro-Neu5Ac]
- reaction product by HPLC after DMB labelling ([1]; 1 mM substrate, in the presence of NAD+ or NADH, not with FAD or without cofactor): Neu5Ac was observed as a reaction product
- Km [1, 4]: 74 ± 14 µM
- kcat [1, 4]: 0.0824 ± 0.0043 s⁻¹
- utilisation as a sole carbon source (growth) [2]: able to utilise
- growth on substrate as sole carbon source [3]: no growth was detected

— US20210254138A1, “SIALIC ACID TRANSPORTER PROTEINS AS BIOMARKERS AND DRUG TARGETS” (Quadram Institute Bioscience, priority 2018, published 2021)
